Measurements: PubChem BioAssay (NCI)
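All cell lines were grown in 96-well plates and treated with compound for 48 hours. At the GI50, growth is halved. TGI: concentration producing complete growth inhibition.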

Tests used:
Assay in all cases: NCI-60 cell line screen, 48 h
MALME-3M melanoma = tested on: MALME-3M melanoma
NCI-H23 lung = tested on: NCI-H23 lung
OVCAR-3 ovarian = tested on: OVCAR-3 ovarian
RPMI-8226 leukemia = tested on: RPMI-8226 leukemia
SK-MEL-2 melanoma = tested on: SK-MEL-2 melanoma
SK-MEL-28 melanoma = tested on: SK-MEL-28 melanoma
U251 CNS = tested on: U251 CNS

SMILES	TGI (MALME-3M melanoma) [µM]	TGI (NCI-H23 lung) [µM]	TGI (OVCAR-3 ovarian) [µM]	TGI (RPMI-8226 leukemia) [µM]	TGI (SK-MEL-2 melanoma) [µM]	TGI (SK-MEL-28 melanoma) [µM]	TGI (U251 CNS) [µM]	GI50 (MALME-3M melanoma) [µM]	GI50 (NCI-H23 lung) [µM]	GI50 (OVCAR-3 ovarian) [µM]	GI50 (RPMI-8226 leukemia) [µM]	GI50 (SK-MEL-2 melanoma) [µM]	GI50 (SK-MEL-28 melanoma) [µM]
Cc1cc(C)c(C(=O)c2no[n+]([O-])c2C(=O)c2c(C)cc(C)c(Br)c2C)c(C)c1Br	29.9	24.3	29.5	38.9	30.9	27.5	25	–	–	–	–	–	–
CN1CC[C@]2(C)c3ccc(O)cc3CC3CCCC1C32C (stereo not given in full)	> 100	> 100	> 100	> 100	> 100	> 100	> 100	–	–	–	–	–	–
NC(=S)NNc1c([N+](=O)[O-])cnn(-c2ccccc2)c1=O	33.7	34.4	32.1	> 100	–	30.8	30.7	–	–	–	–	–	–
CC[C@]1(O)C(=O)OCc2c1cc1n(c2=O)Cc2cc3c(N)cccc3nc2-1	> 100	> 100	> 100	> 100	> 100	> 100	> 100	–	–	–	–	–	–
CC[O-].CC[O-].O=S(=O)([O-])c1ccc([O-])c2ncccc12.O=S(=O)([O-])c1ccc([O-])c2ncccc12.[Ti+4]	> 100	> 100	> 100	> 100	> 100	> 100	–	> 100	> 100	47.6	> 100	> 100	> 100
NCCCCNc1ccc2c(=O)[nH][nH]c(=O)c2c1	> 100	> 100	> 100	–	> 100	> 100	> 100	–	–	–	–	–	–
C/C=C/C=C/C=C/C=C/C(=O)O	> 100	> 100	> 100	> 100	> 100	> 100	> 100	–	–	–	–	–	–
Cc1ccccc1C1=C(C(=O)Nc2ccc(Cl)c(Cl)c2)NC(=S)NC1N (stereo not given)	> 100	> 100	> 100	> 100	> 100	> 100	> 100	–	–	–	–	–	–
O=C(N/N=C(/CCN1CCCC1)CC(c1ccccc1)c1c(O)c2ccccc2oc1=O)c1ccncc1 (stereo not given)	> 100	> 100	> 100	> 100	> 100	–	> 100	–	–	–	–	–	–
CCOC(=O)c1cc(/C=C/C(C)=C/C(=O)OC)oc1C	> 100	> 100	> 100	> 100	> 100	> 100	> 100	–	–	–	–	–	–
CCOP(=O)(OCC)OC(C#N)c1ccc(-c2ccccc2)cc1 (stereo not given)	41	> 100	39.1	45.8	> 100	> 100	28.9	–	–	–	–	–	–
COC1C2C=CC(C2)[C@H]1[N+](=O)[O-] (stereo not given in full)	> 100	> 100	> 100	–	> 100	–	> 100	–	–	–	–	–	–
CC1=C(C(=O)Nc2cccc(Cl)c2)C(c2ccccc2F)C(C(=O)Nc2cccc(Cl)c2)=C(C)N1	31.8	26.5	25.2	11.1	27.1	23	37.7	–	–	–	–	–	–
CN(C)/N=C(/c1nc2ccc(Cl)cc2[nH]c1=O)C(O)c1ccc(C(O)/C(=N\N(C)C)c2nc3ccc(Cl)cc3[nH]c2=O)cc1 (stereo not given)	> 100	> 100	> 100	> 100	> 100	> 100	–	–	–	–	–	–	–
C/C(=N\N(c1ccccc1)c1ccccc1)c1c(O)cc(C)oc1=O	> 100	> 100	–	–	> 100	> 100	> 100	–	–	–	–	–	–
CCOC(=O)/C=C1\CCCC12OCCO2	> 100	–	> 100	> 100	> 100	> 100	> 100	–	–	–	–	–	–
O=[N+]([O-])c1cnn(C2=CNc3ccccc3N=C2)c1	> 100	> 100	> 100	–	> 100	> 100	> 100	–	–	–	–	–	–
O=C(c1ccncc1)n1nc(-c2ccccc2)c(N=Nc2ccccc2[N+](=O)[O-])c1-c1ccccc1	> 100	> 100	> 100	> 100	> 100	> 100	–	–	–	–	–	–	–
CN(C)CC1CCC/C1=N\O (stereo not given)	–	> 100	> 100	> 100	> 100	> 100	> 100	–	–	–	–	–	–
COC(=O)c1ccccc1NC(=O)C(=O)NNC(=O)c1ccncc1	> 100	> 100	> 100	–	–	> 100	–	–	–	–	–	–	–
OC1(c2ccccc2)OC(C#Cc2ccccc2)(c2ccccc2)c2ccccc21 (stereo not given)	22.7	11.3	5.93	6.62	–	–	15.1	–	–	–	–	–	–
COC(=O)C(=O)C(C(=O)C(=O)Nc1cccc(C(C)=O)c1)c1nc2ccccc2[nH]c1=O (stereo not given)	> 100	> 100	> 100	–	> 100	> 100	–	–	–	–	–	–	–
Cc1ccc(-c2cc(-c3ccco3)c(C#N)c(=O)n2C2OC(OC(=O)c3ccccc3)C(OC(=O)c3ccccc3)C2OC(=O)c2ccccc2)cc1 (stereo not given)	> 100	–	> 100	> 100	> 100	> 100	–	–	–	–	–	–	–
